Reference: ChEMBL document CHEMBL4433269, “Design, synthesis and evaluation of biphenyl imidazole analogues as potent antifungal agents” (Bioorg Med Chem Lett, 2019)

How the values were obtained:
[1] = test system: Aspergillus fumigatus; test: Antifungal activity against Aspergillus fumigatus cgmcc 3.7795 assessed as inhibition of visible microbe growth by broth microdilution method; format: functional
[2] = test system: Candida albicans; test: Antifungal activity against Candida albicans CPCC 400523 assessed as inhibition of visible microbe growth by broth microdilution method; format: functional
[3] = test system: Candida tropicalis; test: Antifungal activity against Candida tropicalis cgmcc 2.3739 assessed as inhibition of visible microbe growth by broth microdilution method; format: functional
[4] = test system: Cryptococcus neoformans; test: Antifungal activity against Cryptococcus neoformans cgmcc 2.3161 assessed as inhibition of visible microbe growth by broth microdilution method; format: functional
[5] = test system: Candida albicans; test: Antifungal activity against Candida albicans ATCC SC5314 assessed as inhibition of visible microbe growth by broth microdilution method; format: functional
[6] = test system: Candida albicans; test: Antifungal activity against fluconazole-resistant Candida albicans 100 assessed as inhibition of visible microbe growth by broth microdilution method; format: functional
[7] = test system: Candida albicans; test: Antifungal activity against fluconazole-resistant Candida albicans 103 assessed as inhibition of visible microbe growth by broth microdilution method; format: functional
[8] = molecular target: Cytochrome P450 2D6 (Homo sapiens, UniProt P10635); test: Inhibition of CYP2D6 in human liver microsomes using dextromethorphan pre-incubated for 10 mins before NADPH addition and measured after 10 mins by LC/MS/MS analysis; format: ADME
[9] = molecular target: Cytochrome P450 3A4 (Homo sapiens, UniProt P08684); test: Inhibition of CYP3A4 in human liver microsomes using midazolam pre-incubated for 10 mins before NADPH addition and measured after 10 mins by LC/MS/MS analysis; format: ADME
[10] = molecular target: Cytochrome P450 2C9 (Homo sapiens, UniProt P11712); test: Inhibition of CYP2C9 in human liver microsomes using diclofenac pre-incubated for 10 mins before NADPH addition and measured after 10 mins by LC/MS/MS analysis; format: ADME
[11] = test system: U-87 MG; test: Cytotoxicity in human U87 cells assessed as reduction in cell viability incubated for 24 hrs by MTT assay; format: cell-based, U-87MG ATCC
[12] = molecular target: T1, Cytochrome P450 1A2 (Homo sapiens, UniProt P05177); test: Inhibition of CYP1A2 in human liver microsomes using phenacetin pre-incubated for 10 mins before NADPH addition and measured after 10 mins by LC/MS/MS analysis; format: ADME
T1 sequence (P05177 whole entry): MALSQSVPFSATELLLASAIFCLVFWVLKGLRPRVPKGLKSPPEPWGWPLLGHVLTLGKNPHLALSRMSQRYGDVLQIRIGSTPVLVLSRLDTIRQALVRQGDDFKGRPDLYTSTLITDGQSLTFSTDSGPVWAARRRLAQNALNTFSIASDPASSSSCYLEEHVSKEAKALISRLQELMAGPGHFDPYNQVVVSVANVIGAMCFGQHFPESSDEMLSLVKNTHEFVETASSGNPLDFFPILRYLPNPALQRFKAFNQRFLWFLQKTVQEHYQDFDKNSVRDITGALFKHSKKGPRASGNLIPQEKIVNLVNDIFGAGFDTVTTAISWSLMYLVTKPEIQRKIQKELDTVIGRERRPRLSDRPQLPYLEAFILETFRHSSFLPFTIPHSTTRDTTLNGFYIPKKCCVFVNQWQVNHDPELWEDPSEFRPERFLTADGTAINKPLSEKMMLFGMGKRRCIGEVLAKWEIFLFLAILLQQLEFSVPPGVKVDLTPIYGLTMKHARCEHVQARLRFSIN

[13] = molecular target: Cytochrome P450 2C19 (Homo sapiens, UniProt P33261); test: Inhibition of CYP2C19 in human liver microsomes using S-mephenytoin pre-incubated for 10 mins before NADPH addition and measured after 10 mins by LC/MS/MS analysis; format: ADME
[14] = test system: A549; test: Cytotoxicity in human A549 cells assessed as reduction in cell viability incubated for 24 hrs by MTT assay; format: cell-based; conditions: A549, 24 h

Sequence of Cytochrome P450 3A4 (P08684 whole entry): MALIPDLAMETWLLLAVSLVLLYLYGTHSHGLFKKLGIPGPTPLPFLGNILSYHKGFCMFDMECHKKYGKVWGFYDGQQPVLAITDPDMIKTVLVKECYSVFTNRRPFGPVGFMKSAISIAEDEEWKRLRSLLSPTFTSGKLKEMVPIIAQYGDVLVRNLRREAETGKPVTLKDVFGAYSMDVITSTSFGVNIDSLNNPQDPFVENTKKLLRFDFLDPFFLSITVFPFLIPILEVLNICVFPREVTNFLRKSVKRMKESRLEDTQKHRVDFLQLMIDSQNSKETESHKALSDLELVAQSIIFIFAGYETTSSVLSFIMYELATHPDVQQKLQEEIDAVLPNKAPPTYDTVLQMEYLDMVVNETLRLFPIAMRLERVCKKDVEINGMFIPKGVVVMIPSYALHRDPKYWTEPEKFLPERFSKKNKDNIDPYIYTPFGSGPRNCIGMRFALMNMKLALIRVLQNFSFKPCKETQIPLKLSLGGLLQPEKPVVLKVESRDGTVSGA
Sequence of Cytochrome P450 2C9 (P11712 whole entry): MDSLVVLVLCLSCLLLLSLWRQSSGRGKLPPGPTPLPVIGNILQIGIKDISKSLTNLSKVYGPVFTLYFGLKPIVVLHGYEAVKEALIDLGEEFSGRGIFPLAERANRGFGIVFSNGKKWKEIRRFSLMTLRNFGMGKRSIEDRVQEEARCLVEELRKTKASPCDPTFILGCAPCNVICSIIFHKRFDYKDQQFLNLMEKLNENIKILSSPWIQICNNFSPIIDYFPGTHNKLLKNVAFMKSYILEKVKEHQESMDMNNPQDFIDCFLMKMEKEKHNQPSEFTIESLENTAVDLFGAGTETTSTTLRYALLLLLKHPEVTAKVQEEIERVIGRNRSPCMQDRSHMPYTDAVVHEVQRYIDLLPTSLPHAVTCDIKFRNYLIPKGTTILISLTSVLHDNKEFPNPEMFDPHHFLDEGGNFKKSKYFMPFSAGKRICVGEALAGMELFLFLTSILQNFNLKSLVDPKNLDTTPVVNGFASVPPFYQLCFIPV
Sequence of Cytochrome P450 2D6 (P10635 whole entry): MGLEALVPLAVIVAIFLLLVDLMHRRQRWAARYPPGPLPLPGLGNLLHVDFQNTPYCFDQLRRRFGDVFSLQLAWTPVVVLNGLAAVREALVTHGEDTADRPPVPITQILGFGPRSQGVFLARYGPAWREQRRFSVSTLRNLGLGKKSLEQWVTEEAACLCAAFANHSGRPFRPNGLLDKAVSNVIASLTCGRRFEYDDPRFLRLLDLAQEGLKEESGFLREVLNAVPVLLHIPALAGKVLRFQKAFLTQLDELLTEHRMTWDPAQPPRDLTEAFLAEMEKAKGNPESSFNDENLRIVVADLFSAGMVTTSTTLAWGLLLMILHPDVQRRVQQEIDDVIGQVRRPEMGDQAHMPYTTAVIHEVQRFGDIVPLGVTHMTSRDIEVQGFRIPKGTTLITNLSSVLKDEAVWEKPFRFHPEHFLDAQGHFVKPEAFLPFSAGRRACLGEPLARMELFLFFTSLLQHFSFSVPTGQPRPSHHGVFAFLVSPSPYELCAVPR
Sequence of Cytochrome P450 2C19 (P33261 whole entry): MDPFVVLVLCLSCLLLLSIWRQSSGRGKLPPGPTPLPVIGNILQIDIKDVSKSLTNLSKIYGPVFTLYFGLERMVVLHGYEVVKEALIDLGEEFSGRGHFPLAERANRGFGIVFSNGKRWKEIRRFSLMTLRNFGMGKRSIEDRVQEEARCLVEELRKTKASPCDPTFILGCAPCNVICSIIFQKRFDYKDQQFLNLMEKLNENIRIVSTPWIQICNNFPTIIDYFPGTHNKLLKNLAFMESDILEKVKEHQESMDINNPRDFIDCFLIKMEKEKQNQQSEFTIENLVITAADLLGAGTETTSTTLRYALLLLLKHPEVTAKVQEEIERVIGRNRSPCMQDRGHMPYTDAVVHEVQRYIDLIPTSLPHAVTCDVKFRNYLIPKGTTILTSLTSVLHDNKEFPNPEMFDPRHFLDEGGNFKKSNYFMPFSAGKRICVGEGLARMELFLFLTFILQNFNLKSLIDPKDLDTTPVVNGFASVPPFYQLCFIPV

Row | Compound | MIC [1] [µg/mL] | MIC [2] [µg/mL] | MIC [3] [µg/mL] | MIC [4] [µg/mL] | MIC [5] [µg/mL] | MIC [6] [µg/mL] | MIC [7] [µg/mL] | IC50 [8] [µM] | IC50 [9] [µM] | IC50 [10] [µM] | IC50 [11] [µM] | IC50 [12] [µM] | IC50 [13] [µM] | IC50 [14] [µM]
1 | CC(C)OC(=O)[C@H](Cn1ccnc1)NC(=O)c1ccc(-c2ccccc2F)cc1F | > 16 | 0.125 | 0.25 | > 16 | 0.5 | – | – | – | – | – | – | – | – | –
2 | CC(C)OC(=O)[C@H](Cn1ccnc1)NC(=O)c1ccc(-c2ccc(C#N)cc2)cc1F | > 16 | 4 | 2 | > 16 | 8 | – | – | – | – | – | – | – | – | –
3 | CC(C)COC(=O)[C@H](Cn1ccnc1)NC(=O)c1c(F)cc(-c2ccccc2)cc1F | > 16 | 2 | 2 | > 16 | 0.5 | – | – | – | – | – | – | – | – | –
4 | Cc1cc(-c2ccccc2)ccc1C(=O)N[C@@H](Cn1ccnc1)C(=O)OCC(C)C | > 16 | 2 | 0.5 | > 16 | > 16 | – | – | – | – | – | – | – | – | –
5 | CC(C)OC(=O)[C@H](Cn1ccnc1)NC(=O)c1c(F)cc(-c2ccccc2)cc1F | > 16 | 2 | 0.5 | > 16 | 0.5 | – | – | – | – | – | – | – | – | –
6 | CC(C)COC(=O)[C@H](Cn1ccnc1)NC(=O)c1ccc(-c2ccccc2F)cc1F | > 16 | 0.125 | 0.25 | > 16 | 0.5 | – | – | – | – | – | – | – | – | –
7 | Cc1cc(C(=O)N[C@@H](Cn2ccnc2)C(=O)OCC(C)C)ccc1-c1ccccc1 | > 16 | > 16 | 4 | > 16 | > 16 | – | – | – | – | – | – | – | – | –
8 | Cc1cc(C(=O)N[C@@H](Cn2ccnc2)C(=O)OC(C)C)ccc1-c1ccccc1 | > 16 | > 16 | 8 | > 16 | > 16 | – | – | – | – | – | – | – | – | –
9 | CCC(C)n1ncn(-c2ccc(N3CCN(c4ccc(OCC5COC(Cn6cncn6)(c6ccc(Cl)cc6Cl)O5)cc4)CC3)cc2)c1=O (centres undefined) [ITRACONAZOLE] | 4 | 0.25 | 0.5 | 1 | 0.0625 | – | – | – | – | – | – | – | – | –
10 | CC(C)OC(=O)[C@H](Cn1ccnc1)NC(=O)c1ccc(-c2ccccc2)cc1Cl | > 16 | 8 | 0.5 | 8 | 4 | – | – | – | – | – | – | – | – | –
11 | CC(C)COC(=O)[C@H](Cn1ccnc1)NC(=O)c1ccc(-c2ccccc2)c(F)c1 | 4 | 0.0312 | 0.0312 | > 16 | 0.25 | – | – | – | – | – | – | – | – | –
12 | OC(Cn1cncn1)(Cn1cncn1)c1ccc(F)cc1F [FLUCONAZOLE] | > 16 | 1 | 1 | 4 | 0.5 | > 64 | > 64 | – | – | – | – | – | – | –
13 | CC(C)COC(=O)[C@H](Cn1ccnc1)NC(=O)c1ccc(-c2ccccc2)c(Cl)c1 | > 16 | 8 | 0.25 | 8 | 4 | – | – | – | – | – | – | – | – | –
14 | CC(C)OC(=O)[C@H](Cn1ccnc1)NC(=O)c1ccc(-c2ccccc2)c(F)c1 | 2 | 0.0312 | 0.0312 | 8 | 0.5 | 8 | 2 | > 50 | 4.05 | > 50 | > 50 | > 50 | 43.4 | > 50
15 | CC(C)COC(=O)[C@H](Cn1ccnc1)NC(=O)c1ccc(-c2ccccc2)cc1Cl | > 16 | 8 | 0.25 | 8 | 4 | – | – | – | – | – | – | – | – | –
16 | CC(C)COC(=O)[C@H](Cn1ccnc1)NC(=O)c1ccc(-c2ccc(C#N)cc2)cc1F | > 16 | > 16 | 0.5 | > 16 | > 16 | – | – | – | – | – | – | – | – | –
17 | Cc1cc(-c2ccccc2)ccc1C(=O)N[C@@H](Cn1ccnc1)C(=O)OC(C)C | > 16 | 2 | 0.5 | > 16 | > 16 | – | – | – | – | – | – | – | – | –
18 | COc1cc(-c2ccccc2)ccc1C(=O)N[C@@H](Cn1ccnc1)C(=O)OC(C)C | > 16 | 1 | 1 | > 16 | 8 | – | – | – | – | – | – | – | – | –
19 | CC(C)OC(=O)[C@H](Cn1ccnc1)NC(=O)c1ccc(-c2ccccc2)c(Cl)c1 | > 16 | 8 | 1 | 8 | 8 | – | – | – | – | – | – | – | – | –
20 | CC(C)OC(=O)[C@H](Cn1ccnc1)NC(=O)c1ccc(-c2ccccc2F)c(F)c1 | > 16 | 0.0312 | 0.0312 | 8 | 0.0625 | 16 | 2 | – | – | – | – | – | – | –
21 | COc1cc(-c2ccccc2)ccc1C(=O)N[C@@H](Cn1ccnc1)C(=O)OCC(C)C | > 16 | 4 | 2 | > 16 | > 16 | – | – | – | – | – | – | – | – | –
22 | CC(C)COC(=O)[C@H](Cn1ccnc1)NC(=O)c1ccc(-c2ccccc2F)c(F)c1 | > 16 | 0.0625 | 0.0625 | > 16 | 0.25 | 8 | 4 | – | – | – | – | – | – | –
23 | CC(C)COC(=O)[C@H](Cn1ccnc1)NC(=O)c1ccc(-c2ccccc2)cc1F | 8 | 0.0312 | 0.0312 | > 16 | 0.25 | – | – | – | – | – | – | – | – | –
24 | CC(C)OC(=O)[C@H](Cn1ccnc1)NC(=O)c1ccc(-c2ccccc2)cc1F | 4 | 0.0312 | 0.0312 | > 16 | 0.25 | 16 | 4 | 19.1 | 0.0429 | 4.49 | > 50 | > 50 | 7.44 | > 50
